Literature values, collected in US20040265231A1, “Use of antioxidants to mitigate radioimmunotherapy-induced radiation toxicity” (priority 1999, published 2004).

How the values were obtained:
[1] = for radioprotective effect (frequency of micronuclei and chromosomal aberration post-radiation): murine study, gamma-ray

Q: What does the source list for vitamin E?
A: radioprotective effect (frequency of micronuclei and chromosomal aberration post-radiation) [1]: exhibited radioprotective effects; radioprotective effect of vitamin alone ([1]; rats and mice): ineffective

Q: Which results are given for vitamin A?
A: radioprotection against tissue incorporated I5I (in vivo): effective radioprotector; radioprotective effect against 210Po (alpha emission) (in vivo): not against ^210Po

Q: For `O=C1O[C@H]([C@@H](O)CO)C(O)=C1O` [vitamin C, L-ascorbic acid], which “radioprotective effect (frequency of micronuclei and chromosomal aberration post-radiation)” value [1] is on record?
A: exhibited radioprotective effects

Q: What about the “radioprotective effect against internalized 131I and 125I” value (dietary and injected) of the same compound?
A: exhibited radioprotective effects

Q: And the “radioprotective effect against 210Po (alpha emission)” value (in vivo)?
A: not against alpha emission from ^210Po
